Tests used:
Assay type in all cases: biochemical
PI3K-delta = PI3K-delta (Homo sapiens, UniProt O00329); experiment: PI3K-delta fluorescence polarization assay; conditions: read-out: PI3Kδ Avg. IC50
PI3K-alpha = PI3K-alpha (Homo sapiens, UniProt P42336); experiment: PI3K-alpha fluorescence polarization assay; conditions: read-out: PI3Kα Avg. IC50
human TOR = target: T1, human TOR (Homo sapiens, UniProt P42345); experiment: mTOR enzyme assay (DELFIA, His6-S6K substrate); conditions: read-out: mTOR Kinase Avg. IC50
T1 construct: FLAG

PI3K-gamma = PI3K-gamma (Homo sapiens, UniProt P48736); experiment: PI3K-gamma fluorescence polarization assay; conditions: PI3Kγ Avg. IC50
Sequence of PI3K-gamma (P48736 whole entry, species assumed, the tested form may be a part): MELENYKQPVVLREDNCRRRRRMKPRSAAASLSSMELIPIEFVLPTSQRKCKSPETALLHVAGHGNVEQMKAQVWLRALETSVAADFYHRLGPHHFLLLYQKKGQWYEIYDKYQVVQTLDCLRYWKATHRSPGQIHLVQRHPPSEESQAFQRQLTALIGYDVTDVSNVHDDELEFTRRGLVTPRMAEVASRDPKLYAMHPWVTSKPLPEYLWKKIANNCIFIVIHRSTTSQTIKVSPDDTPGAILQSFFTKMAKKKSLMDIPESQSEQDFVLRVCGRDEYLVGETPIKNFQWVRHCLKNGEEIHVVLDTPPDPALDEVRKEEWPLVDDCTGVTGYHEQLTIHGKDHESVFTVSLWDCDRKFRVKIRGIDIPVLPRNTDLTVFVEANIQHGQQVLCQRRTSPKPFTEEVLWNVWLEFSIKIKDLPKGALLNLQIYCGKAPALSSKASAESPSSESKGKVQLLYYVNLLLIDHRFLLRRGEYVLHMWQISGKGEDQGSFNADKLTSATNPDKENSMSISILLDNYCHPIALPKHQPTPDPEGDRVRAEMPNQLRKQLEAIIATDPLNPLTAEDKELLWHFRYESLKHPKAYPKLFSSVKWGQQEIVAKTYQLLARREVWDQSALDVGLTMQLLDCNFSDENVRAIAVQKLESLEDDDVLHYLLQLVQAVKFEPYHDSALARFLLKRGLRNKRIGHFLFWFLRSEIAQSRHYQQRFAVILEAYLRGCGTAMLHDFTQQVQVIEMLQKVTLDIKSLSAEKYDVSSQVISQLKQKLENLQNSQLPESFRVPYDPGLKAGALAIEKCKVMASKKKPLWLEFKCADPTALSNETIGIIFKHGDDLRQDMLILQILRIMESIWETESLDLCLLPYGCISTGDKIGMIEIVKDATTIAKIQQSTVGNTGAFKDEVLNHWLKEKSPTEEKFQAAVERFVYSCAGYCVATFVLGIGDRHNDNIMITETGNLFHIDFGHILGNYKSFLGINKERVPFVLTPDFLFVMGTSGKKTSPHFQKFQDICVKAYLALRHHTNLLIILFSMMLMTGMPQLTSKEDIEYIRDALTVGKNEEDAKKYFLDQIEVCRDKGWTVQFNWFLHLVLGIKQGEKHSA
Outline: (§1)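 Inhibition is derived from a polarization signal: after a 1 h, 25° C kinase step (25 μM ATP, 2.5 μM diC8-PIP2, pH 7), EDTA stops the reaction and the GRP1 PH domain/TMR-IP4 pair reports lipid product.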

PI3K-beta = PI3K-beta (Homo sapiens, UniProt P42338); experiment: PI3K-beta fluorescence polarization assay; conditions: read-out: PI3Kβ Avg. IC50
Sequence of PI3K-beta (P42338 whole entry, species assumed): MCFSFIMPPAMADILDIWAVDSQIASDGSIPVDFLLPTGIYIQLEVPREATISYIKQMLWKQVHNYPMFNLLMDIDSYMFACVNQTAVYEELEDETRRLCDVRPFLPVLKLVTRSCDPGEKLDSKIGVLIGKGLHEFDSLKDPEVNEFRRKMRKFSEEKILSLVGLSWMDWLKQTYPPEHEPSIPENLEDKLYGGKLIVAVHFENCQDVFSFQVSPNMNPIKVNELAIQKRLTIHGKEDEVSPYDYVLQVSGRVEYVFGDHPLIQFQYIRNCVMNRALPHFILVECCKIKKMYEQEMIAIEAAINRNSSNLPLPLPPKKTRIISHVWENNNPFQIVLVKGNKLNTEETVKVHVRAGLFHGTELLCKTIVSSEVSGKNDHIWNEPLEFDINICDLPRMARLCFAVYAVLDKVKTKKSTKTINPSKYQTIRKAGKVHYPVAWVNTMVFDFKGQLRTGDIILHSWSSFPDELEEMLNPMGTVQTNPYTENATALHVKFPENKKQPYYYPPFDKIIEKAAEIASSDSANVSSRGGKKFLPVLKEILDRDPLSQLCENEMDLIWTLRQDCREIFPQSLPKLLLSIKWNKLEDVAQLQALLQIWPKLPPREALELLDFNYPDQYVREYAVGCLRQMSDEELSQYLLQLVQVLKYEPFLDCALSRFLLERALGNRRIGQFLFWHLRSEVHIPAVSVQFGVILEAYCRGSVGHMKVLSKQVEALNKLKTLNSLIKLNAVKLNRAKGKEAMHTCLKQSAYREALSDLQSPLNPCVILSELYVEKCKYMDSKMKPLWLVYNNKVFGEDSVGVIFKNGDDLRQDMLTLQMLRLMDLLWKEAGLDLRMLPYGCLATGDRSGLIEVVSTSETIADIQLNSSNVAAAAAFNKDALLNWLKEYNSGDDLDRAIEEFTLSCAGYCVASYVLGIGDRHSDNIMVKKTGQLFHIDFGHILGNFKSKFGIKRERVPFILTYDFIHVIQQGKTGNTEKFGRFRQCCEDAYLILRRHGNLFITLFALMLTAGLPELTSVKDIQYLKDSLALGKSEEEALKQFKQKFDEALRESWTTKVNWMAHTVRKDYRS
Sequence of PI3K-beta (P27986 whole entry partner, species assumed): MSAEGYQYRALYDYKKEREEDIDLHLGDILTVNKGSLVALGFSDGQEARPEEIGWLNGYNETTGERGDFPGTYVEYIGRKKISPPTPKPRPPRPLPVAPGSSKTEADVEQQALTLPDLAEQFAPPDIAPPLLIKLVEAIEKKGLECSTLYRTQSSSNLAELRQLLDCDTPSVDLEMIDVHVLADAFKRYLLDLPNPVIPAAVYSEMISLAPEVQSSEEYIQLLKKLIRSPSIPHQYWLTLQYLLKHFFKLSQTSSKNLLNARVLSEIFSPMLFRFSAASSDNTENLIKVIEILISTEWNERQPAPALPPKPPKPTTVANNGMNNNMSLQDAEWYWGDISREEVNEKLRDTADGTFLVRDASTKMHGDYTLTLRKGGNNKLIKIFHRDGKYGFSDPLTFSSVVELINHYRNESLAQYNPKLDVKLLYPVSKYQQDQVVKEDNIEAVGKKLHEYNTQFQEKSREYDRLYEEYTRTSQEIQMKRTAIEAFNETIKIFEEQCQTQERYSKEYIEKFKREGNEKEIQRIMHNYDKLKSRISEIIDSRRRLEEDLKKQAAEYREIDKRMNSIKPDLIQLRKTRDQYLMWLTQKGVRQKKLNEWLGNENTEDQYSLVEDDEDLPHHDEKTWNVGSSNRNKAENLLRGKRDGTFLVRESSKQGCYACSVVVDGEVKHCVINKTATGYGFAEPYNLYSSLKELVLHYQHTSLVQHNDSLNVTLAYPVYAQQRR
Outline: as §1

Sequence of PI3K-delta (O00329 whole entry, species assumed): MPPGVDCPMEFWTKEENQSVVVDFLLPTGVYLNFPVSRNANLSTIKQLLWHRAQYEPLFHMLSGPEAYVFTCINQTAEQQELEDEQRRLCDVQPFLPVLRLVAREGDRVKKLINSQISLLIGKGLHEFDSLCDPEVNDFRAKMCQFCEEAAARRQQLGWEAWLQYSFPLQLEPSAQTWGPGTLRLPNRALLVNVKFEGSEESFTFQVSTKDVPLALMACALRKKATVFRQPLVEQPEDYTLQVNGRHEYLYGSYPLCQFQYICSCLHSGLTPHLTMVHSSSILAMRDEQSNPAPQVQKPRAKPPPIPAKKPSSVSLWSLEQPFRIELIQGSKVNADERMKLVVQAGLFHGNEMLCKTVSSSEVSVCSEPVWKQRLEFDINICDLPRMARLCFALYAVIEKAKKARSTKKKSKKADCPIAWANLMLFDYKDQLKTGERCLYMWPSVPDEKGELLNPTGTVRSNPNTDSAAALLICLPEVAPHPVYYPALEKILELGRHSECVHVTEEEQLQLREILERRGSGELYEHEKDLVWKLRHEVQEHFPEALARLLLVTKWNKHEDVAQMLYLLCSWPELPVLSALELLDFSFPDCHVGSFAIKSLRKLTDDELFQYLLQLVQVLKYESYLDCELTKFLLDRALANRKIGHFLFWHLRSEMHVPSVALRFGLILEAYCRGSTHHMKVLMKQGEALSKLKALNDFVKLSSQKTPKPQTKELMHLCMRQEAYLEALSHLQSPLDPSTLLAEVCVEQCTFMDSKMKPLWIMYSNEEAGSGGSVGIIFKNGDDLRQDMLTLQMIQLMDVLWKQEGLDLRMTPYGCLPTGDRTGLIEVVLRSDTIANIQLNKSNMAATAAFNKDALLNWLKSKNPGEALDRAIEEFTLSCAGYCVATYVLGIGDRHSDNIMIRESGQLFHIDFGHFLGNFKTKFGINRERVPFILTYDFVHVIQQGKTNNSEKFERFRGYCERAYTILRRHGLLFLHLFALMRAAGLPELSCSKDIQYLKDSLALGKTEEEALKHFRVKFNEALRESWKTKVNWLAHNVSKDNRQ
Sequence of PI3K-delta (P27986 whole entry partner, species assumed): as the sequence (P27986 whole entry partner, species assumed) above
Sequence of PI3K-alpha (P42336 whole entry, species assumed): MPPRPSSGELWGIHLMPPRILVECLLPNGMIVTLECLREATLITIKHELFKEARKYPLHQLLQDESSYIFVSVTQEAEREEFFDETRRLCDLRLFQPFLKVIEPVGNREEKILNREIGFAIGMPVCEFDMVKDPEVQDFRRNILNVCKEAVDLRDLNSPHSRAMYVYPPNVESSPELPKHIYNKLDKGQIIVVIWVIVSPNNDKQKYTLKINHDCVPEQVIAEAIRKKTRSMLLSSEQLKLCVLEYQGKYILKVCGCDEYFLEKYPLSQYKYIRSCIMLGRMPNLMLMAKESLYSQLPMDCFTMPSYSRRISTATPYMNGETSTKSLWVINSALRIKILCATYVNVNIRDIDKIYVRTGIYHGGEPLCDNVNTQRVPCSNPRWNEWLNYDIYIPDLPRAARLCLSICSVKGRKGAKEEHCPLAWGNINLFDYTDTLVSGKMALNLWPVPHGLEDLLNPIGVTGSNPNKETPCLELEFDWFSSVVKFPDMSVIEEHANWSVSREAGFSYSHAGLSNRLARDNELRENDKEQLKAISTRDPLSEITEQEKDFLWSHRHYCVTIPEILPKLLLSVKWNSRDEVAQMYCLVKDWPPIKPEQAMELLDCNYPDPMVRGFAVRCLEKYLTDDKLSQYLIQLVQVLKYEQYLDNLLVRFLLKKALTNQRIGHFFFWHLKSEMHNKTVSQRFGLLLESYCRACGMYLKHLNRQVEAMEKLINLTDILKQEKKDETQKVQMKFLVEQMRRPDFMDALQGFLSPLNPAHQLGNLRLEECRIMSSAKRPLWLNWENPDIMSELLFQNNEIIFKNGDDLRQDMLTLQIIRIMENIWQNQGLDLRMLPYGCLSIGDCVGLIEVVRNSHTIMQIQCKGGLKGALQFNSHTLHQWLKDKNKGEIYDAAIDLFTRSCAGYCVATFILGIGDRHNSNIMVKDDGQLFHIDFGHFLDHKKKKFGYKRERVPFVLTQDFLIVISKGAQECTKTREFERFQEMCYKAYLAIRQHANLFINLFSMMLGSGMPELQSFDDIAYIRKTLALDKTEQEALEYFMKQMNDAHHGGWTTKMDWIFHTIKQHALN
Sequence of PI3K-alpha (P27986 whole entry partner, species assumed): as the sequence (P27986 whole entry partner, species assumed) above

Compound	IC50 (PI3K-delta) [nM]	IC50 (PI3K-alpha) [nM]	IC50 (human TOR) [nM]	IC50 (PI3K-gamma) [nM]	IC50 (PI3K-beta) [nM]
COc1ccc2c(c1)c(/C=C1\Oc3cc(O)cc(O)c3C1=O)cn2CCO [Example 317, (2Z)-4,6-Dihydroxy-2-{[1-(2-hydroxyethyl)-5-methoxy-1H-indol-3-yl]methylene}-1-benzofuran-3(2H)-one]	8.5	17	77.5	92.5	64
COc1ccc2c(c1)c(/C=C1\Oc3cc(O)cc(O)c3C1=O)cn2CC(=O)N(C)C [Example 318, 2-{3-[(Z)-(4,6-Dihydroxy-3-oxo-1-benzofuran-2(3H)-ylidene)methyl]-5-methoxy-1H-indol-1-yl}-N,N-dimethylacetamide]	27	83.3	250	686	739
COc1ccc2c(c1)c(/C=C1\Oc3cc(O)cc(O)c3C1=O)cn2CCCN(C)C [Example 323, (2Z)-2-({1-[3-(Dimethylamino)propyl]-5-methoxy-1H-indol-3-yl}methylene)-4,6-dihydroxy-1-benzofuran-3(2H)-one]	4	20.5	930	605	120
COc1ccc2c(c1)c(/C=C1\Oc3cc(O)cc(O)c3C1=O)cn2CCN1CCC(O)C1 (centres unmarked) [Example 326, (2Z)-4,6-Dihydroxy-2-({1-[2-(3-hydroxypyrrolidin-1-yl)ethyl]-5-methoxy-1H-indol-3-yl}methylene)-1-benzofuran-3(2H)-one]	9.5	58	540	150	88
COc1ccc2c(c1)c(/C=C1\Oc3cc(O)cc(O)c3C1=O)c(-c1cnn(C)c1)n2CC(=O)N(C)C [Example 329, 2-{3-[(Z)-(4,6-Dihydroxy-3-oxo-1-benzofuran-2(3H)-ylidene)methyl]-5-methoxy-2-(1-methyl-1H-pyrazol-4-yl)-1H-indol-1-yl}-N,N-dimethylacetamide]	18.5	12.5	39	130	51.6
COc1ccc2[nH]c(-c3cnn(C)c3)c(/C=C3\Oc4cc(O)cc(O)c4C3=O)c2c1 [Example 330, (2Z)-4,6-Dihydroxy-2-{[5-methoxy-2-(1-methyl-1H-pyrazol-4-yl)-1H-indol-3-yl]methylene}-1-benzofuran-3(2H)-one]	1.5	< 1.8	< 17	3	1
COc1ccc2c(c1)c(/C=C1\Oc3cc(O)cc(O)c3C1=O)c(C(F)(F)F)n2CCO [Example 332, (2Z)-4,6-Dihydroxy-2-{[1-(2-hydroxyethyl)-5-methoxy-2-(trifluoromethyl)-1H-indol-3-yl]methylene}-1-benzofuran-3(2H)-one]	7.8	5	< 21	22	13.3
COc1ccc2c(c1)c(/C=C1\Oc3cc(O)cc(O)c3C1=O)c(C(F)(F)F)n2CC(=O)N(C)C [Example 333, 2-{3-[(Z)-(4,6-Dihydroxy-3-oxo-1-benzofuran-2(3H)-ylidene)methyl]-5-methoxy-2-(trifluoromethyl)-1H-indol-1-yl}-N,N-dimethylacetamide]	51	66	53	159	203
COc1ccc2c(c1)c(/C=C1\Oc3cc(O)cc(O)c3C1=O)c(C1CC1)n2CCn1ccnc1 [Example 334, (2Z)-2-({2-Cyclopropyl-1-[2-(1H-imidazol-1-yl)ethyl]-5-methoxy-1H-indol-3-yl}methylene)-4,6-dihydroxy-1-benzofuran-3(2H)-one]	1.5	1.3	< 17	2.2	1.2
COc1ccc2c(c1)c(/C=C1\Oc3cc(O)cc(O)c3C1=O)c(C(F)(F)F)n2CCn1cccn1 [Example 337, (2Z)-4,6-Dihydroxy-2-({5-methoxy-1-[2-(1H-pyrazol-1-yl)ethyl]-2-(trifluoromethyl)-1H-indol-3-yl}methylene)-1-benzofuran-3(2H)-one]	9.7	13	20.5	7	75.3
COc1ccc2[nH]c(C(=O)O)c(/C=C3\Oc4cc(O)cc(O)c4C3=O)c2c1 [Example 339, 3-[(Z)-(4,6-Dihydroxy-3-oxo-1-benzofuran-2(3H)-ylidene)methyl]-5-methoxy-1H-indole-2-carboxylic acid]	20.3	5.5	39.5	8.5	93.7
COc1ccc2c(c1)c(/C=C1\Oc3cc(O)cc(O)c3C1=O)c(C1CC1)n2CCn1cccn1 [Example 340, (2Z)-2-({2-Cyclopropyl-5-methoxy-1-[2-(1H-pyrazol-1-yl)ethyl]-1H-indol-3-yl}methylene)-4,6-dihydroxy-1-benzofuran-3(2H)-one]	1.6	2	< 0.82	3	7.5

More lines, now with the values ahead:

IC50 (PI3K-delta) [nM]	IC50 (PI3K-alpha) [nM]	IC50 (human TOR) [nM]	IC50 (PI3K-gamma) [nM]	IC50 (PI3K-beta) [nM]	Compound
3.5	38.3	265	117	108	COc1ccc2c(c1)c(/C=C1\Oc3cc(O)cc(O)c3C1=O)cn2CCN1CCC(O)CC1 [Example 319, (2Z)-4,6-Dihydroxy-2-({1-[2-(4-hydroxypiperidin-1-yl)ethyl]-5-methoxy-1H-indol-3-yl}methylene)-1-benzofuran-3(2H)-one]
0.8	3	12.8	36.5	22	COc1ccc2c(c1)c(/C=C1\Oc3cc(O)cc(O)c3C1=O)c(C)n2CCN1CCC(O)CC1 [Example 320, (2Z)-4,6-Dihydroxy-2-({1-[2-(4-hydroxypiperidin-1-yl)ethyl]-5-methoxy-2-methyl-1H-indol-3-yl}methylene)-1-benzofuran-3(2H)-one]
1.8	2	6.85	15.5	10	COc1ccc2c(c1)c(/C=C1\Oc3cc(O)cc(O)c3C1=O)c(C)n2CCO [Example 321, (2Z)-4,6-Dihydroxy-2-{[1-(2-hydroxyethyl)-5-methoxy-2-methyl-1H-indol-3-yl]methylene}-1-benzofuran-3(2H)-one]
2.5	11	< 30	39	9.5	COc1ccc2c(c1)c(/C=C1\Oc3cc(O)cc(O)c3C1=O)c(C)n2CCN1CCC(O)C1 (centres unmarked) [Example 327, (2Z)-4,6-Dihydroxy-2-({1-[2-(3-hydroxypyrrolidin-1-yl)ethyl]-5-methoxy-2-methyl-1H-indol-3-yl}methylene)-1-benzofuran-3(2H)-one]
2	6	< 24	15.5	2.5	COc1ccc2c(c1)c(/C=C1\Oc3cc(O)cc(O)c3C1=O)c(C)n2CCn1ccnc1 [Example 328, (2Z)-4,6-Dihydroxy-2-({1-[2-(1H-imidazol-1-yl)ethyl]-5-methoxy-2-methyl-1H-indol-3-yl}methylene)-1-benzofuran-3(2H)-one]
6.5	4	49.5	39.5	5.5	COc1ccc2[nH]c(C(=O)N3CCN(C)CC3)c(/C=C3\Oc4cc(O)cc(O)c4C3=O)c2c1 [Example 331, (2Z)-4,6-Dihydroxy-2-({5-methoxy-2-[(4-methylpiperazin-1-yl)carbonyl]-1H-indol-3-yl}methylene)-1-benzofuran-3(2H)-one]
2	9	1650	588	22	COc1ccc2c(c1)c(/C=C1\Oc3cc(O)ccc3C1=O)c(C(=O)N(C)C)n2CCN1CCN(C)CC1 [Example 335, 3-[(Z)-(6-Hydroxy-3-oxo-1-benzofuran-2(3H)-ylidene)methyl]-5-methoxy-N,N-dimethyl-1-[2-(4-methylpiperazin-1-yl)ethyl]-1H-indole-2-carboxamide]
1	4	< 22	61.7	4.1	COc1ccc2c(c1)c(/C=C1\Oc3cc(O)cc(O)c3C1=O)c(C(F)(F)F)n2CCN1CCN(C)CC1 [Example 336, (2Z)-4,6-Dihydroxy-2-({5-methoxy-1-[2-(4-methylpiperazin-1-yl)ethyl]-2-(trifluoromethyl)-1H-indol-3-yl}methylene)-1-benzofuran-3(2H)-one]
3	22	> 160	666	57.7	COc1ccc2c(c1)c(/C=C1\Oc3cc(O)cc(C)c3C1=O)c(C)n2CCN1CCN(C)CC1 [Example 338, (2Z)-6-Hydroxy-2-({5-methoxy-2-methyl-1-[2-(4-methylpiperazin-1-yl)ethyl]-1H-indol-3-yl}methylene)-4-methyl-1-benzofuran-3(2H)-one]
0.8	1.7	10.8	22.8	7.1	COc1ccc2c(c1)c(/C=C1\Oc3cc(O)cc(O)c3C1=O)c(-c1cnn(C)c1)n2CCN1CCN(C)CC1 [Example 341, (2Z)-4,6-Dihydroxy-2-({5-methoxy-1-[2-(4-methylpiperazin-1-yl)ethyl]-2-(1-methyl-1H-pyrazol-4-yl)-1H-indol-3-yl}methylene)-1-benzofuran-3(2H)-one]
